Results: ChEMBL document CHEMBL3817761, “Chenopodium album metabolites act as dual topoisomerase inhibitors and induce apoptosis in the MCF7 cell line” (Medchemcomm, 2016)
Activity calls are given as the source filed them. The rule behind the calls is not given here.

Legend:
MCF7 [1] = test: Induction of apoptosis in human MCF7 cells assessed as caspase 9 cleavage at 11.33 uM after 48 hrs by Western blot analysis; assay type: functional, cell-based
MCF7 [2] = test: Induction of apoptosis in human MCF7 cells assessed as viable cells at 11.33 uM after 48 hrs by Annexin-V-FITC/propidium iodide staining based flow cytometry (reference value: 99.2 %); assay type: functional; settings: MCF7, 48 h, read-out: Activity
MCF7 [3] = test: Induction of apoptosis in human MCF7 cells assessed as early apoptotic cells at 11.33 uM after 48 hrs by Annexin-V-FITC/propidium iodide staining based flow cytometry (reference value: 0.4 %); assay type: functional
MCF7 [4] = test: Induction of apoptosis in human MCF7 cells assessed as necrotic cells at 11.33 uM after 24 hrs by Annexin-V-FITC/propidium iodide staining based flow cytometry (reference value: 1.7 %); assay type: functional
MCF7 [5] = test: Induction of apoptosis in human MCF7 cells assessed as necrotic cells at 11.33 uM after 48 hrs by Annexin-V-FITC/propidium iodide staining based flow cytometry (reference value: 0.4 %); assay type: functional
MCF7 [6] = test: Induction of apoptosis in human MCF7 cells assessed as PARP-1 cleavage at 11.33 uM after 48 hrs by Western blot analysis; assay type: functional, cell-based
MCF7 [7] = test: Induction of apoptosis in human MCF7 cells assessed as early apoptotic cells at 11.33 uM after 24 hrs by Annexin-V-FITC/propidium iodide staining based flow cytometry (reference value: 2.3 %); assay type: functional
MCF7 [8] = test: Cell cycle arrest in human MCF7 cells assessed as accumulation at G2/M phase at 11.33 uM after 48 hrs by propidium iodide staining based flow cytometry (reference value: 19.8 %); assay type: functional
MCF7 [9] = test: Cell cycle arrest in human MCF7 cells assessed as accumulation at S phase at 11.33 uM after 24 hrs by propidium iodide staining based flow cytometry (reference value: 24.5 %); assay type: functional
MCF7 [10] = test: Cell cycle arrest in human MCF7 cells assessed as accumulation at G2/M phase at 11.33 uM after 24 hrs by propidium iodide staining based flow cytometry (reference value: 25 %); assay type: functional
MCF7 [11] = test: Cell cycle arrest in human MCF7 cells assessed as accumulation at G0/G1 phase at 11.33 uM after 48 hrs by propidium iodide staining based flow cytometry (reference value: 59.7 %); assay type: functional
MCF7 [12] = test: Induction of mitochondrial membrane depolarization in human MCF7 cells at 11.33 uM after 24 hrs by JC-1 staining based FACS assay (reference value: 9.9 %); assay type: functional
MCF7 [13] = test: Induction of apoptosis in human MCF7 cells assessed as caspase 7 cleavage at 11.33 uM after 48 hrs by Western blot analysis; assay type: functional, cell-based
MCF7 [14] = test: Cell cycle arrest in human MCF7 cells assessed as accumulation at G0/G1 phase at 11.33 uM after 24 hrs by propidium iodide staining based flow cytometry (reference value: 50.3 %); assay type: functional
MCF7 [15] = test: Induction of apoptosis in human MCF7 cells assessed as viable cells at 11.33 uM after 24 hrs by Annexin-V-FITC/propidium iodide staining based flow cytometry (reference value: 95.9 %); assay type: functional; settings: MCF7, 24 h, read-out: Activity
MCF7 [16] = test: Induction of ROS accumulation in human MCF7 cells at 8.27 uM after 24 hrs by CM-H2-DCFDA probe based flow cytometry (reference value: 12.6 %); assay type: functional
MCF7 [17] = test: Induction of mitochondrial membrane depolarization in human MCF7 cells assessed as ratio of red to green fluorescence at 8.27 uM after 48 hrs by JC-1 staining based FACS assay (reference value: 9.1); assay type: functional
MCF7 [18] = test: Induction of apoptosis in human MCF7 cells assessed as early apoptotic cells at 8.27 uM after 24 hrs by Annexin-V-FITC/propidium iodide staining based flow cytometry (reference value: 2.3 %); assay type: functional
MCF7 [19] = test: Induction of apoptosis in human MCF7 cells assessed as viable cells at 8.27 uM after 48 hrs by Annexin-V-FITC/propidium iodide staining based flow cytometry (reference value: 99.2 %); assay type: functional; settings: MCF7, 48 h, read-out: Activity
MCF7 [20] = test: Induction of apoptosis in human MCF7 cells assessed as viable cells at 8.27 uM after 24 hrs by Annexin-V-FITC/propidium iodide staining based flow cytometry (reference value: 95.9 %); assay type: functional; settings: MCF7, 24 h, read-out: Activity
MCF7 [21] = test: Cell cycle arrest in human MCF7 cells assessed as accumulation at S phase at 8.27 uM after 48 hrs by propidium iodide staining based flow cytometry (reference value: 20.6 %); assay type: functional
MCF7 [22] = test: Induction of apoptosis in human MCF7 cells assessed as late apoptotic cells at 8.27 uM after 24 hrs by Annexin-V-FITC/propidium iodide staining based flow cytometry (reference value: 0.1 %); assay type: functional
MCF7 [23] = test: Induction of apoptosis in human MCF7 cells assessed as rounded cells at 8.27 uM after 24 hrs by inverted phase contrast microscopy; assay type: functional, cell-based
MCF7 [24] = test: Induction of mitochondrial membrane depolarization in human MCF7 cells at 8.27 uM after 24 hrs by JC-1 staining based FACS assay (reference value: 9.9 %); assay type: functional
MCF7 [25] = test: Induction of apoptosis in human MCF7 cells assessed as caspase 7 cleavage at 8.27 uM after 48 hrs by Western blot analysis; assay type: functional, cell-based
MCF7 [26] = test: Induction of mitochondrial membrane depolarization in human MCF7 cells at 8.27 uM by JC-1 staining based FACS assay; assay type: functional, cell-based; settings: TDE = time-dependent effect
MCF7 [27] = test: Cell cycle arrest in human MCF7 cells assessed as accumulation at G0/G1 phase at 8.27 uM after 24 hrs by propidium iodide staining based flow cytometry (reference value: 50.3 %); assay type: functional
MCF7 [28] = test: Induction of apoptosis in human MCF7 cells assessed as necrotic cells at 8.27 uM after 24 hrs by Annexin-V-FITC/propidium iodide staining based flow cytometry (reference value: 1.7 %); assay type: functional
MCF7 [29] = test: Cell cycle arrest in human MCF7 cells assessed as accumulation at G2/M phase at 8.27 uM after 48 hrs by propidium iodide staining based flow cytometry (reference value: 19.8 %); assay type: functional
MCF7 [30] = test: Cell cycle arrest in human MCF7 cells assessed as accumulation at G2/M phase at 8.27 uM after 24 hrs by propidium iodide staining based flow cytometry (reference value: 25 %); assay type: functional
MCF7 [31] = test: Induction of apoptosis in human MCF7 cells assessed as cell detachment at 8.27 uM after 24 hrs by inverted phase contrast microscopy; assay type: functional, cell-based
MCF7 [32] = test: Induction of apoptosis in human MCF7 cells assessed as caspase 9 cleavage at 8.27 uM after 48 hrs by Western blot analysis; assay type: functional, cell-based
MCF7 [33] = test: Cell cycle arrest in human MCF7 cells assessed as accumulation at G0/G1 phase at 8.27 uM after 48 hrs by propidium iodide staining based flow cytometry (reference value: 59.7 %); assay type: functional
MCF7 [34] = test: Induction of mitochondrial membrane depolarization in human MCF7 cells at 8.27 uM after 48 hrs by JC-1 staining based FACS assay (reference value: 9.9 %); assay type: functional
MCF7 [35] = test: Induction of apoptosis in human MCF7 cells assessed as late apoptotic cells at 8.27 uM after 48 hrs by Annexin-V-FITC/propidium iodide staining based flow cytometry relative to control; assay type: functional
MCF7 [36] = test: Induction of apoptosis in human MCF7 cells assessed as necrotic cells at 8.27 uM after 48 hrs by Annexin-V-FITC/propidium iodide staining based flow cytometry (reference value: 0.4 %); assay type: functional

SMILES: CC1(C)CC[C@]2(C(=O)O)CC[C@]3(C)C(=CC[C@@H]4[C@@]5(C)CC[C@H](O[C@@H]6O[C@H](C(=O)O)[C@@H](O)[C@H](O)[C@H]6O)C(C)(C)[C@@H]5CC[C@]43C)[C@@H]2C1
- Activity (MCF7 [1]): Active
- viability at 11.33 µM (MCF7 [2]): 52%
- Activity (MCF7 [3]): 46%
- Activity (MCF7 [4]): 0.7%
- Activity (MCF7 [5]): 0.8%
- Activity (MCF7 [6]): Active
- Activity (MCF7 [7]): 11.6%
- Activity (MCF7 [8]): 17%
- Activity (MCF7 [9]): 29.7%
- Activity (MCF7 [10]): 24.3%
- Activity (MCF7 [11]): 35.1%
- Activity (MCF7 [12]): 14%
- Activity (MCF7 [13]): Active
- Activity (MCF7 [14]): 45.9%
- viability at 11.33 µM (MCF7 [15]): 87.5%

SMILES: C[C@@H]1CC[C@@]2(OC1)O[C@H]1C[C@H]3[C@@H]4CC[C@H]5C[C@@H](O[C@@H]6O[C@H](CO)[C@H](O[C@@H]7O[C@H](CO)[C@@H](O)[C@H](O[C@@H]8OC[C@@H](O)[C@H](O)[C@H]8O)[C@H]7O[C@@H]7O[C@H](CO)[C@@H](O)[C@H](O)[C@H]7O)[C@H](O)[C@H]6O)CC[C@]5(C)[C@H]4CC[C@]3(C)[C@H]1[C@@H]2C [DEGALACTOTIGONIN]
- Activity (MCF7 [16]): 99.9%
- Ratio (MCF7 [17]): 0.437
- Activity (MCF7 [18]): 5.5%
- viability at 8.27 µM (MCF7 [19]): 0.7%
- viability at 8.27 µM (MCF7 [20]): 91%
- Activity (MCF7 [21]): 40.1%
- Activity (MCF7 [22]): 0.5%
- Activity (MCF7 [23]): Active
- Activity (MCF7 [24]): 9%
- Activity (MCF7 [25]): Active
- Activity (MCF7 [26]): tde
- Activity (MCF7 [27]): 43.8%
- Activity (MCF7 [28]): 3%
- Activity (MCF7 [29]): 22.5%
- Activity (MCF7 [30]): 28.5%
- Activity (MCF7 [31]): Active
- Activity (MCF7 [32]): Active
- Activity (MCF7 [33]): 36.3%
- Activity (MCF7 [34]): 69.6%
- Activity (MCF7 [35]): 0.6%
- Activity (MCF7 [36]): 0%
